Assay results from patent US8609610B2, “Inhibitors of the trypsin-like site of the proteasome and methods of use thereof” (Trustees of Dartmouth College, priority 2011, dated 2013).

Assays:
[1] = test system: chymotrypsin-like sites (β5) of proteasome in MM cells; test: PROTEASOMEGLO assay of proteasome inhibition in MM cells; format: cell-based; settings: KMS-12-BM, washout
[2] = test system: T1, chymotrypsin-like sites (β5) of proteasome in MM cells; test: as above; format: cell-based; settings: for Inhibition of chymotrypsin-like sites, 6 h −NC-022 / Inhibition of chymotrypsin-like sites, 6 h +NC-022: washout
T1 construct: other: NCI-H929; bortezomib 100 nM 1 h; bortezomib 11 nM 1 h; bortezomib 3.7 nM 1 h; bortezomib 33 nM 1 h; other: NCI-H9

[3] = molecular target: T2, trypsin-like sites (β2) of proteasome in MM cells (Homo sapiens, UniProt Q99436); test: as above; format: cell-based; settings: for Inhibition of trypsin-like sites, 6 h +NC-022 / Inhibition of trypsin-like sites, 6 h −NC-022: washout
T2 construct: endogenous in cells; host or cells: NCI-H929, RPMI-8226 and other MM cell lines
T2 sequence (Q99436 44-277): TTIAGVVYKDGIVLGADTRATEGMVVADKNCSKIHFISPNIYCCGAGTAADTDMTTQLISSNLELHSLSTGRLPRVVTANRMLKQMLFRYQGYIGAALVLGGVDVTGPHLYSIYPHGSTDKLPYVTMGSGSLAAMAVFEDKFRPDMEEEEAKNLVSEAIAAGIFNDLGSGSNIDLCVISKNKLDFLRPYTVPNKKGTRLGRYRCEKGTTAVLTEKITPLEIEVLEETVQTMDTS

KMS-12-BM cells = test: ALAMAR BLUE cell viability assay; format: cell-based; settings: viability at 48 h
Procedure, shortened: (§1)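 Myeloma lines were grown in RPMI-1640 with 10% FBS; viability of myeloma cells was read by ALAMAR BLUE mitochondrial dye conversion. PBMNC viability used CELL TITER-GLO ATP luminescence. Caspase-3/7 activity in NCI-H929 and MM1.R was measured with the APO-ONE homogeneous assay.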

NCI-H929 cells = test: ALAMAR BLUE cell viability assay; format: cell-based; settings: NCI-H929, viability at 48 h
Procedure, shortened: as §1

chymotrypsin-like sites = settings: patients treated with bortezomib, maximal tolerated doses; cited from earlier work
[4] = molecular target: T3, trypsin-like site of 26S proteasomes (Oryctolagus cuniculus, UniProt G1SWK8); test: Inhibition of purified 26S proteasomes, substrate Ac-RLR-amc; format: biochemical, rabbit; settings: purified 26S proteasomes; >>30 no inhibition at 30 μM, >30 inhibition between 10 and 50% at 30 μM; read-out: IC50 for sites in 26S proteasomes: Tr-L
T3 construct: IC50 for sites in 26S proteasomes: Tr-L; other: purified 26S proteasomes; other: 26S proteasomes from rabbit muscles
T3 sequence (G1SWK8 1-271): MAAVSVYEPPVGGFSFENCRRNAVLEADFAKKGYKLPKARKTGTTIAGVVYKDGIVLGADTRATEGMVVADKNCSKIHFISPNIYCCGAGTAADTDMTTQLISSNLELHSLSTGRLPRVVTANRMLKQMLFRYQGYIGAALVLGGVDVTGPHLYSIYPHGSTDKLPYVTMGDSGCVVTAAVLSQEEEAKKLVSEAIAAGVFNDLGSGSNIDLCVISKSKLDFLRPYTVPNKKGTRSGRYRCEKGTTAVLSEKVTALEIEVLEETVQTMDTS

[5] = molecular target: T4, chymotrypsin-like site of 26S proteasomes (Oryctolagus cuniculus, UniProt G1T4Q9); test: Inhibition of purified 26S proteasomes, substrate Suc-LLVY-amc; format: biochemical, rabbit; settings: >>30 no inhibition at 30 μM, >30 inhibition between 10 and 50% at 30 μM, read-out: IC50 for sites in 26S proteasomes: Chym-L
T4 sequence (G1T4Q9 1-263): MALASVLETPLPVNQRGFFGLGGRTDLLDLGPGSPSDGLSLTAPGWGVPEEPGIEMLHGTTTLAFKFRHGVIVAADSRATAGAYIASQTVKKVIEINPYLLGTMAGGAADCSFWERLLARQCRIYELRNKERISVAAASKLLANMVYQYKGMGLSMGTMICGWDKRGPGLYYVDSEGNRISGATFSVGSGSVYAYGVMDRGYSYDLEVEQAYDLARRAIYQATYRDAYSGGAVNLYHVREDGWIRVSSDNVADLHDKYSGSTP
Procedure: 26S proteasomes were purified from rabbit muscle using known methods (Screen, et al. (2010) supra). […] NOVEX Bis-Tris gels (12%, Invitrogen) with MOPS running buffer were used for electrophoretic separation of catalytic subunits modified by active-site probes. Inhibition of active sites inside cells was assayed using luminescent PROTEASOMEGLO assay (Promega; Moravec, et al. (2009) Anal. Biochem. 387:294-302) according to known methods (Britton, et al. (2009) supra).

[6] = test system: trypsin-like sites (β2) of proteasome in MM cells; test: PROTEASOMEGLO assay of proteasome inhibition in MM cells; format: cell-based
Cathepsin B, H, L, S = test: Cathepsin activity with pan-cathepsin substrate Z-FR-amc; format: cell-based; settings: NCI-H929 cells, 6 hour treatment
Procedure: Cathepsin B, H, L, S activity was measured with pan-cathepsin substrate Z-FR-amc (Kirschke & Wiederanders (1994) Methods Enzymol. 244:500-11) in extracts of cytosol-less cells at pH 6.0 (Screen, et al. (2010) supra). Cathepsin D activity was measured in cytosol-less extracts using SENSOLYTE 520 Cathepsin D Fluorometric Assay Kit (AnaSpec). Combined cathepsin D and E activity was measured using the same kit, in which cathepsin D substrate provided with the kit was replaced with 7-Methoxycoumarin-[…](Dnp)-X′-NH2 (SEQ ID NO:10; where “X′” stand for D-Arg) internally quenched fluorogenic substrate of cathepsin D and E. In this case, pH 3.0 assay buffer used for cell extraction. All activity observed using both procedures was inhibited by more than 98% by specific inhibitor of aspartic proteases pepstatin A.

β2 proteasome subunit = molecular target: T5, β2 proteasome subunit (Homo sapiens, UniProt P49720+Q99436); test: Competition assay in HEK-293T cell lysate with MV151; format: biochemical; settings: HEK293 extracts
T5 construct: Whole cell lysates of HEK-293T or EL-4 cells were made by sonication; endogenous in cells; host or cells: HEK-293T
Procedure: Protein concentration was determined by the Bradford assay.
Competitive inhibition of a proteasome active site is reflected by the disappearance of the corresponding band on a gel.

[7] = KMS-12-BM, bortezomib 33.3 nM 1 h
[8] = KMS-12-BM, bortezomib 100 nM 1 h
[9] = KMS-12-BM, bortezomib 300 nM 1 h
[10] = KMS-12-BM, bortezomib 900 nM 1 h
[11] = NCI-H929, bortezomib 3.7 nM 1 h
[12] = NCI-H929, bortezomib 100 nM 1 h

CC(C)C[C@H](NC(=O)[C@H](Cc1ccccc1)NC(=O)c1cnccn1)B(O)O [Bortezomib]
Inhibition of chymotrypsin-like sites, 6 h +NC-022 ([1]; bortezomib 33.3 nM 1 h): 62 ± 7 % control
Inhibition of chymotrypsin-like sites, 6 h +NC-022 ([1]; bortezomib 100 nM 1 h): 75 ± 6 % control
Inhibition of chymotrypsin-like sites, 1 h [2, 7]: 82 ± 8 % control
Inhibition of chymotrypsin-like sites, 6 h −NC-022 [2, 7]: 56 ± 24 % control
Inhibition of chymotrypsin-like sites, 1 h [2, 8]: 90 ± 6 % control
Inhibition of chymotrypsin-like sites, 6 h −NC-022 [2, 8]: 64 ± 23 % control
Inhibition of chymotrypsin-like sites, 1 h [2, 9]: 93 ± 3 % control
Inhibition of chymotrypsin-like sites, 6 h +NC-022 [2, 9]: 83 ± 6 % control
Inhibition of chymotrypsin-like sites, 6 h −NC-022 [2, 9]: 76 ± 18 % control
Inhibition of chymotrypsin-like sites, 1 h [2, 10]: 93 ± 5 % control
Inhibition of chymotrypsin-like sites, 6 h +NC-022 [2, 10]: 88 ± 5 % control
Inhibition of chymotrypsin-like sites, 6 h −NC-022 [2, 10]: 84 ± 16 % control
Inhibition of chymotrypsin-like sites, 1 h [2, 11]: 9 ± 7 % control
Inhibition of chymotrypsin-like sites, 6 h +NC-022 [2, 11]: 14 ± 13 % control
Inhibition of chymotrypsin-like sites, 6 h −NC-022 [2, 11]: 13 ± 1 % control
Inhibition of chymotrypsin-like sites, 1 h ([2]; NCI-H929, bortezomib 11 nM 1 h): 64 ± 7 % control
Inhibition of chymotrypsin-like sites, 6 h +NC-022 ([2]; NCI-H929, bortezomib 11 nM 1 h): 34 ± 29 % control
Inhibition of chymotrypsin-like sites, 6 h −NC-022 ([2]; NCI-H929, bortezomib 11 nM 1 h): 41 ± 3.5 % control
Inhibition of chymotrypsin-like sites, 1 h ([2]; NCI-H929, bortezomib 33 nM 1 h): 89 ± 2 % control
Inhibition of chymotrypsin-like sites, 6 h +NC-022 ([2]; NCI-H929, bortezomib 33 nM 1 h): 48 ± 35 % control
Inhibition of chymotrypsin-like sites, 6 h −NC-022 ([2]; NCI-H929, bortezomib 33 nM 1 h): 85 ± 4 % control
Inhibition of chymotrypsin-like sites, 1 h [2, 12]: 96 ± 2 % control
Inhibition of chymotrypsin-like sites, 6 h +NC-022 [2, 12]: 93 ± 2 % control
Inhibition of chymotrypsin-like sites, 6 h −NC-022 [2, 12]: 86 ± 1 % control
Inhibition of trypsin-like sites, 1 h [3, 7]: 10 ± 11 % control
Inhibition of trypsin-like sites, 6 h +NC-022 [3, 7]: 92 ± 0 % control
Inhibition of trypsin-like sites, 6 h −NC-022 [3, 7]: 8 ± 15 % control
Inhibition of trypsin-like sites, 1 h [3, 8]: 19 ± 3 % control
Inhibition of trypsin-like sites, 6 h +NC-022 [3, 8]: 92 ± 1 % control
Inhibition of trypsin-like sites, 6 h −NC-022 [3, 8]: 15 ± 11 % control
Inhibition of trypsin-like sites, 1 h [3, 9]: 22 ± 12 % control
Inhibition of trypsin-like sites, 6 h +NC-022 [3, 9]: 91 ± 2 % control
Inhibition of trypsin-like sites, 6 h −NC-022 [3, 9]: 24 ± 18 % control
Inhibition of trypsin-like sites, 1 h [3, 10]: 28 ± 5 % control
Inhibition of trypsin-like sites, 6 h +NC-022 [3, 10]: 93 ± 1 % control
Inhibition of trypsin-like sites, 6 h −NC-022 [3, 10]: 26 ± 19 % control
Inhibition of trypsin-like sites, 1 h [3, 11]: 0 ± 7 % control
Inhibition of trypsin-like sites, 6 h +NC-022 [3, 11]: 93 ± 2 % control
Inhibition of trypsin-like sites, 6 h −NC-022 [3, 11]: 6 ± 4 % control
Inhibition of trypsin-like sites, 1 h ([3]; NCI-H929, bortezomib 11 nM 1 h): 8 ± 11 % control
Inhibition of trypsin-like sites, 6 h +NC-022 ([3]; NCI-H929, bortezomib 11 nM 1 h): 93 ± 2 % control
Inhibition of trypsin-like sites, 6 h −NC-022 ([3]; NCI-H929, bortezomib 11 nM 1 h): 14 ± 2 % control
Inhibition of trypsin-like sites, 1 h ([3]; NCI-H929, bortezomib 33 nM 1 h): 26 ± 15 % control
Inhibition of trypsin-like sites, 6 h +NC-022 ([3]; NCI-H929, bortezomib 33 nM 1 h): 94 ± 1 % control
Inhibition of trypsin-like sites, 6 h −NC-022 ([3]; NCI-H929, bortezomib 33 nM 1 h): 31 ± 0 % control
Inhibition of trypsin-like sites, 1 h [3, 12]: 36 ± 17 % control
Inhibition of trypsin-like sites, 6 h +NC-022 [3, 12]: 96 ± 1 % control
Inhibition of trypsin-like sites, 6 h −NC-022 [3, 12]: 45 ± 2 % control
Viability +NC-022 (KMS-12-BM cells; bortezomib 33.3 nM 1 h): 72 ± 1 % control
Viability −NC-022 (KMS-12-BM cells; bortezomib 33.3 nM 1 h): 98 ± 13 % control
Viability +NC-022 (KMS-12-BM cells; bortezomib 100 nM 1 h): 42 ± 10 % control
Viability −NC-022 (KMS-12-BM cells; bortezomib 100 nM 1 h): 92 ± 9 % control
Viability +NC-022 (KMS-12-BM cells; bortezomib 300 nM 1 h): 14 ± 11 % control
Viability −NC-022 (KMS-12-BM cells; bortezomib 300 nM 1 h): 66 ± 9 % control
Viability +NC-022 (KMS-12-BM cells; bortezomib 900 nM 1 h): 3.8 ± 2.5 % control
Viability −NC-022 (KMS-12-BM cells; bortezomib 900 nM 1 h): 14 ± 12 % control
Viability +NC-022 (NCI-H929 cells; bortezomib 3.7 nM 1 h): 85 ± 3 % control
Viability −NC-022 (NCI-H929 cells; bortezomib 3.7 nM 1 h): 107 ± 5 % control
Viability +NC-022 (NCI-H929 cells; bortezomib 11 nM 1 h): 65 ± 1 % control
Viability −NC-022 (NCI-H929 cells; bortezomib 11 nM 1 h): 106 ± 2 % control
Viability +NC-022 (NCI-H929 cells; bortezomib 33 nM 1 h): 19 ± 19 % control
Viability −NC-022 (NCI-H929 cells; bortezomib 33 nM 1 h): 53 ± 17 % control
Viability +NC-022 (NCI-H929 cells; bortezomib 100 nM 1 h): 1.9 ± 1.5 % control
Viability −NC-022 (NCI-H929 cells; bortezomib 100 nM 1 h): 2.9 ± 1.5 % control
inhibition of the chymotrypsin-like sites in patients (chymotrypsin-like sites): ≤ 70%

CC(C)C[C@H](NC(=O)[C@H](Cc1ccc(CN)cc1)NC(=O)[C@H](Cc1ccccc1)N=[N+]=[N-])C(=O)N[C@H](/C=C/S(C)(=O)=O)Cc1ccc(CN)cc1 [Compound 52, N3-Phe-Phe (4-CH2NH2)-Leu-Phe (4-CH2NH2)-VS]
IC50 [4]: 6.6 nM
IC50 [5]: 3900 nM
difference in IC50 for trypsin-like activity between NCI-H929 and RPMI-8226 [6]: 2.5 fold
inhibition of cathepsins (Z-FR-amc) (Cathepsin B, H, L, S): slightly more potent inhibitor of cathepsins
potency in extracts of human cells (β2 proteasome subunit): most potent inhibitor in extracts
